# Results from BindingDB's records for patent US10174013 (Selvita S.A., 2019).
# pIC50, pKd: −log10 of the molar value.
# How the values were obtained:
# [1] = target: Potassium voltage-gated channel subfamily H member 2 (Homo sapiens, UniProt Q12809); assay: Determination of a Possible Activity on hERG
# Procedure: In order to establish whether the compounds of the present invention act on hERG, the following experiment was carried out.The in vitro effects of the compounds indicated in Table 5 on the hERG potassium channel current (a surrogate for Iκr, the rapidly activating, delayed rectifier cardiac potassium current) expressed in mammalian cells were evaluated at room temperature using the QPatch HT (Sophion Bioscience A/S, Denmark), an automatic parallel patch clamp system. Each compound indicated in Table 5 was evaluated at 0.1, 1, 3, 10 and 30 μM with each concentration tested in a minimum of two cells (n≥2). The duration of exposure to each compound concentration was 3 minutes.
# [2] = target: Receptor-type tyrosine-protein kinase FLT3 [D835Y] (Homo sapiens, UniProt P36888, D835Y); assay: FLT3 Kinase assay
# Procedure: (§1) Selected compounds were also tested for their binding properties against FLT3 kinase mutants using suitable in vitro assays (performed according to standard assays at DiscoveRx Corporation). The compounds show strong binding to the main oncogenic mutants of the FLT3 kinase.
# [3] = target: Receptor-type tyrosine-protein kinase FLT3 [D835H] (Homo sapiens, UniProt P36888, D835H); assay: FLT3 Kinase assay
# Procedure: as §1
# [4] = target: Receptor-type tyrosine-protein kinase FLT3 (Homo sapiens, UniProt P36888); assay: FLT3 Kinase assay
# Procedure: as §1
# Potassium voltage-gated channel subfamily H member 2, sequence (Q12809 whole entry): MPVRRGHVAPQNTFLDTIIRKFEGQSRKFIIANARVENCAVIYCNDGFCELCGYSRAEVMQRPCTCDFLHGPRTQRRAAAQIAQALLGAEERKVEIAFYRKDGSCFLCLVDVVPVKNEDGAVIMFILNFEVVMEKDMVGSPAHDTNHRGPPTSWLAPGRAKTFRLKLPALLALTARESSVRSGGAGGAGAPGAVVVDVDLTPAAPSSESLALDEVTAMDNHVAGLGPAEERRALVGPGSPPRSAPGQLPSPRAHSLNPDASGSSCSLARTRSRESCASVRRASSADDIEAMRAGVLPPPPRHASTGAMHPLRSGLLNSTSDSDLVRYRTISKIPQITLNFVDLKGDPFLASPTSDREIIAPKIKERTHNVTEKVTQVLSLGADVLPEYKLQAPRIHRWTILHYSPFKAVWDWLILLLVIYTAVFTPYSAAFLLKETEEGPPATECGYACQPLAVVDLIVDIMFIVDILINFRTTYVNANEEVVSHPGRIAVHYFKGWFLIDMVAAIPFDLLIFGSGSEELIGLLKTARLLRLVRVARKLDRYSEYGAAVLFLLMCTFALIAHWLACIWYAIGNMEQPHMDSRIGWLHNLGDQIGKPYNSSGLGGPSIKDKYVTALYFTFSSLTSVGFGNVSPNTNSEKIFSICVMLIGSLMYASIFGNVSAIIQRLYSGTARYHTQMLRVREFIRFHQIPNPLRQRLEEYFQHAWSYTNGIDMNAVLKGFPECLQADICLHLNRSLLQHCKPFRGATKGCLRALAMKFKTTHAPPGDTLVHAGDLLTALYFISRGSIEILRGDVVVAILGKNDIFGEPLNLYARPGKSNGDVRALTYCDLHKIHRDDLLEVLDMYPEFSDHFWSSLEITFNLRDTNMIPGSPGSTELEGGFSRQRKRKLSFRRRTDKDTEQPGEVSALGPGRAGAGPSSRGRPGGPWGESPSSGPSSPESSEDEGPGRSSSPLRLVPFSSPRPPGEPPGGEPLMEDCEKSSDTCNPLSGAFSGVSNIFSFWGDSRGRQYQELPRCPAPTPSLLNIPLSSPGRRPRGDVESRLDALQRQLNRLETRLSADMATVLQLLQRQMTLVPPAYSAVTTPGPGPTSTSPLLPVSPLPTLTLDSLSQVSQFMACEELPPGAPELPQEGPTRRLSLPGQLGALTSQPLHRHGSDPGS
Structure (SMILES),pIC50 [1],pKd [2],pKd [3],pKd [4]
"CCn1c(N2CCNCC2)nc2c([N+](=O)[O-])c(Br)c(Br)cc21 [US10174013, Example 1A]",4.69,–,–,–
"CC(C)n1c(N2CCNCC2)nc2c([N+](=O)[O-])c(Br)c(Br)cc21 [US10174013, Example 2A]",–,7.82,7.55,6.89
